According to US9663514B2 (Takeda Pharmaceutical Company Limited, priority 2011, dated 2017):

Biological target: T1, SYK (Homo sapiens, UniProt P43405)
T1 construct: The SYK kinase domain (residues 356-635) is amplified via PCR; made in house; host or cells: Sf9 insect cells (baculovirus, pFastBac1)
Experiment: SYK inhibition: in vitro assay of SYK-mediated phosphorylation of FAM-labeled substrate (Caliper LC-3000)
Format: biochemical
Settings: SYK kinase domain (residues 356-635); 2.4 nM SYK and 45 μM ATP, 3 μM 5FAM-KKKKEEIYFFFG-NH2, RT 60 min, pH 7.3; pIC50 = −log(IC50), IC50 molar
Method: The ability of compounds to inhibit SYK activity may be assessed using a variety of methods, including in vitro and in vivo assays. The following in vitro assay measures a test compound's ability to inhibit SYK-mediated phosphorylation of a FAM-labeled SYK-specific substrate (5FAM-KKKKEEIYFFFG-NH2).
SYK protein is prepared from cDNA encoding human spleen tyrosine kinase and is expressed in insect cells using a baculovirus expression vector. The cDNA (IMAGE: 3542895) is purchased from Open Biosystems. The SYK kinase domain (residues 356-635) is amplified via PCR and cloned into plasmid pFastBacl (Invitrogen) at BamHI/XbaI sites. Recombinant plasmid encoding Met-Ala-Lys-SYK(356-635)-HHHHHH is sequenced and transformed into E. coli DH10Bac strain. The recombinant bacmid DNA is isolated and transfected into Sf9 insect cells. Recombinant virus is harvested 72 h after transfection. High titer viral stock is prepared by infecting Sf9 cells at a multiplicity of infection (MOI) of approximately 0.01. A suspension of Sf9 cells (10 L) is infected with recombinant virus (MOI=5) and is incubated in a Wave Bioreactor (GE-Healthcare) for 48 h. The cells are harvested and stored at −80° C.
To purify the expressed protein, the frozen Sf9 cells (10 L) are broken into small (<1 cm) particles and suspended in a lysis buffer (300 mL) containing 20 mM Tris (pH 7.6), 0.25 mM TCEP, 100 mM NaCl, 5% glycerol and a protease inhibitor. The suspension is stirred at RT until completely thawed, lysed an additional 2-4 min on a rotary blade homogenizer, and then centrifuged at 4200 g for 1 h. Following centrifugation, the supernatant is poured through cheese cloth and combined with a nickel chelating resin (Probond Resin™, Invitrogen) which is pre-equilibrated in a wash buffer containing 10 mM Tris (pH 7.6), 0.25 mM TCEP, 300 mM NaCl, 5% glycerol, and 20 mM imidazole. The mixture is agitated for 3 h in a cold room and then centrifuged at 900 g for 10 min. The resin is dispersed in wash buffer (50 mL), centrifuged for 10 min at 900 g, re-dispersed in a small amount of wash buffer (5 mL), and then pour into a disposable Poly-Prep chromatography column, through which wash buffer is passed by gravity until no protein is observed in coomassie buffer (about 120 mL of wash buffer). An elution buffer (30 mL) containing 10 mM HEPES (pH 7.4), 150 mM NaCl, 10% glycerol, 5 mM DTT, and 400 mM imidazole is used to elute the SYK protein from the resin. The eluate is concentrated (5 mL) and further purified on a Superdex 200 column (1.2 mL/min for 160 min, 10 mM HEPES (pH 7.4), 10 mM NaCl, 10 mM MgCl, 0.1 mM EDTA, and 0.25 mM TCEP). The chromatographed fractions are run on SDS-PAGE and the requisite fractions are pooled and concentrated. Final delivery buffer is 10 mM HEPES (pH 7.4), 10 mM Methione, 150 mM NaCl, 10% glycerol, 5 mM DTT.
SYK inhibition is determined using a black 384 well plate format in buffer containing 50 mM HEPES, 10 mM NaCl, 10 mM MgCl2, 0.2 mM EDTA, 0.01% EDA (Brij®35), 1 mM DTT, and 0.1 mg/ml BSA at pH 7.3. Each test compound is prepared in DMSO using 2-fold serial dilutions for 11 data points, which are added to the buffer so that each dilution contains 3% DMSO. To each well is added 2 μL of 3 μM SFAM-KKKKEEIYFFFG-NH2 (in buffer), 2 μL of diluted test compound (3% DMSO in buffer), and 2 μL of 2.4 nM SYK and 45 μM ATP (in buffer). The reaction mixture is incubated at RT for 60 min, and quenched by adding 50 mM Hepes, 30 mM EDTA, 0.1% Triton X-100 (pH 7.3). To quantify the fluorescent-labeled substrate and product following reaction, the test plate is loaded on a Caliper LC-3000, which measures percent of conversion by microfluidic-based separation. Corresponding IC50 values are calculated by non-linear curve fitting of the compound concentrations and percent of inhibition to the standard IC50 equation and reported as pIC50, i.e., −log(IC50), where IC50 is molar concentration.

| IC50 | SMILES |
| --- | --- |
| 0.316 nM | Cc1nn(C)c2sc(-c3nc(N[C@@H]4CCOC[C@@H]4N)c(F)c4c3C(=O)NC4)cc12 [Example 37, 6-((3R,4R)-3-Aminotetrahydro-2H-pyran-4-ylamino)-4-(1,3-dimethyl-1H-thieno[2,3-c]pyrazol-5-yl)-7-fluoro-1H-pyrrolo[3,4-c]pyridin-3(2H)-one] |
| 100 nM | N[C@H]1CCCC[C@H]1Nc1nc(CCc2ccccc2)c2c(c1F)CNC2=O [Example 47, 6-((1R,2S)-2-Aminocyclohexylamino)-7-fluoro-4-phenethyl-1H-pyrrolo[3,4-c]pyridin-3 (2H)-one] |
| 1.26 nM | Cc1c2sc(-c3nc(N[C@@H]4CCOC[C@@H]4N)c(F)c4c3C(=O)NC4)cc2nn1C [Example 34, 6-((3R,4R)-3-Aminotetrahydro-2H-pyran-4-ylamino)-4-(2,3-dimethyl-2H-thieno[3,2-c]pyrazol-5-yl)-7-fluoro-1H-pyrrolo[3,4-c]pyridin-3(2H)-one] |
| 12.6 nM | N[C@H]1COCC[C@H]1Nc1nc(-c2ccc(F)s2)c2c(c1F)CNC2=O [Example 12, 6-((3R,4R)-3-Aminotetrahydro-2H-pyran-4-ylamino)-7-fluoro-4-(5-fluorothiophen-2-yl)-1H-pyrrolo[3,4-c]pyridin-3(2H)-one] |
| 1.26 nM | CCc1cc(-c2nc(N[C@@H]3CCCC[C@@H]3N)c(F)c3c2C(=O)NC3)sn1 [Example 3, 6-((1R,2S)-2-Aminocyclohexylamino)-4-(3-ethylisothiazol-5-yl)-7-fluoro-1H-pyrrolo[3,4-c]pyridin-3 (2H)-one] |
| 10 nM | N[C@H]1CCCC[C@H]1Nc1nc(-c2cc3n(c2)CCOC3)c2c(c1F)CNC2=O [Example 35, 6-((1R,2S)-2-Aminocyclohexylamino)-4-(3,4-dihydro-1H-pyrrolo[2,1-c][1,4]oxazin-7-yl)-7-fluoro-1H-pyrrolo[3,4-c]pyridin-3(2H)-one] |
| 0.398 nM | N[C@H]1COCC[C@H]1Nc1nc(-c2cc3c(F)cccc3s2)c2c(c1F)CNC2=O [Example 23, 6-((3R,4R)-3-Aminotetrahydro-2H-pyran-4-ylamino)-7-fluoro-4-(4-fluorobenzo[b]thiophen-2-yl)-1H-pyrrolo[3,4-c]pyridin-3(2H)-one] |
| 251 nM | Cc1ccn2ncc(-c3nc(N[C@@H]4CCCC[C@@H]4N)c(F)c4c3C(=O)N[C@H]4C)c2c1 [Example 55, (S)-6-(((1R,2S)-2-Aminocyclohexyl)amino)-7-fluoro-1-methyl-4-(5-methylpyrazolo[1,5-a]pyridin-3-yl)-1H-pyrrolo[3,4-c]pyridin-3(2H)-one] |
| 0.2 nM | N[C@H]1COCC[C@H]1Nc1nc(-c2cc3ccncc3s2)c2c(c1F)CNC2=O [Example 9, 6-((3R,4R)-3-Aminotetrahydro-2H-pyran-4-ylamino)-7-fluoro-4-(thieno[2,3-c]pyridin-2-yl)-1H-pyrrolo[3,4-c]pyridin-3(2H)-one] |
| 12.6 nM | N[C@H]1COCC[C@H]1Nc1nc(-c2ccns2)c2c(c1F)CNC2=O [Example 4, 6-((3R,4R)-3-Aminotetrahydro-2H-pyran-4-ylamino)-7-fluoro-4-(isothiazol-5-yl)-1H-pyrrolo[3,4-c]pyridin-3(2H)-one] |
| 0.158 nM | N[C@H]1COCC[C@H]1Nc1nc(-c2cc3ccc(F)cc3s2)c2c(c1F)CNC2=O [Example 19, 6-((3R,4R)-3-Aminotetrahydro-2H-pyran-4-ylamino)-7-fluoro-4-(6-fluorobenzo[b]thiophen-2-yl)-1H-pyrrolo[3,4-c]pyridin-3(2H)-one] |
| 50.1 nM | Cc1ccn2ncc(-c3nc(N[C@@H]4CCCC[C@@H]4N)c(F)c4c3C(=O)N[C@@H]4C)c2c1 [Example 54, (R)-6-(((1R,2S)-2-Aminocyclohexyl)amino)-7-fluoro-1-methyl-4-(5-methylpyrazolo[1,5-a]pyridin-3-yl)-1H-pyrrolo[3,4-c]pyridin-3(2H)-one] |
| 0.158 nM | N[C@H]1CCCC[C@H]1Nc1nc(-c2cc3cccnc3s2)c2c(c1F)CNC2=O [Example 14, 6-((1R,2S)-2-Aminocyclohexylamino)-7-fluoro-4-(thieno[2,3-b]pyridin-2-yl)-1H-pyrrolo[3,4-c]pyridin-3(2H)-one] |
| 1.58 nM | N[C@H]1CCCC[C@H]1Nc1nc(-c2cc(F)cs2)c2c(c1F)CNC2=O [Example 28, 6-((1R,2S)-2-Aminocyclohexylamino)-7-fluoro-4-(4-fluorothiophene-2-yl)-1H-pyrrolo[3,4-c]pyridin-3(2H)-one] |
| 2 nM | N[C@H]1COCC[C@H]1Nc1nc(/C=C/c2ccc(Cl)cc2)c2c(c1F)CNC2=O [Example 51] |
| 50.1 nM | N[C@H]1COCC[C@H]1Nc1nc(-c2cc(C(F)F)ns2)c2c(c1F)CNC2=O [Example 1, 6-((3R,4R)-3-Aminotetrahydro-2H-pyran-4-ylamino)-4-(3-(difluoromethyl)isothiazol-5-yl)-7-fluoro-1H-pyrrolo[3,4-c]pyridin-3(2H)-one] |
| 398 nM | C[C@@H]1NC(=O)c2c(-c3cnn4ccc(F)cc34)nc(N[C@@H]3CCCC[C@@H]3N)c(F)c21 [Example 53, (S)-6-(((1R,2S)-2-Aminocyclohexyl)amino)-7-fluoro-4-(5-fluoropyrazolo[1,5-a]pyridin-3-yl)-1-methyl-1H-pyrrolo[3,4-c]pyridin-3(2H)-one] |
| 0.631 nM | Cc1cc(-c2nc(N[C@@H]3CCCC[C@@H]3N)c(F)c3c2C(=O)NC3)sn1 [Example 42, 6-((1R,2S)-2-Aminocyclohexylamino)-7-fluoro-4-(3-methylisothiazol-5-yl)-1H-pyaolo[3,4-c]pyridin-3(2H)-one] |
| 0.316 nM | N#Cc1ccc2sc(-c3nc(N[C@@H]4CCOC[C@@H]4N)c(F)c4c3C(=O)NC4)cc2c1 [Example 21, 2-(6-((3R,4R)-3-Aminotetrahydro-2H-pyran-4-ylamino)-7-fluoro-3-oxo-2,3-dihydro-1H-pyrrolo[3,4-c]pyridin-4-yl)benzo[b]thiophene-5-carbonitrile] |
| 12.6 nM | N[C@H]1COCC[C@H]1Nc1nc(-c2cc3ncccc3s2)c2c(c1F)CNC2=O [Example 25, 6-((3R,4R)-3-Aminotetrahydro-2H-pyran-4-ylamino)-7-fluoro-4-(thieno[3,2-b]pyridin-2-yl)-1H-pyrrolo[3,4-c]pyridin-3(2H)-one] |
| 0.398 nM | N[C@H]1CCCC[C@H]1Nc1nc(-c2cc3c(F)cccc3s2)c2c(c1F)CNC2=O [Example 24, 6-((1R,2S)-2-Aminocyclohexylamino)-7-fluoro-4-(4-fluorobenzo[b]thiophen-2-yl)-1H-pyrrolo[3,4-c]pyridin-3(2H)-one] |
| 5.01 nM | N[C@H]1COCC[C@H]1Nc1nc(/C=C/c2ccc(F)cc2)c2c(c1F)CNC2=O [Example 46, 6-((3R,4R)-3-Aminotetrahydro-2H-pyran-4-ylamino)-7-fluoro-4-(4-fluorostyryl)-1H-pyrrolo[3,4-c]pyridin-3(2H)-one] |
| 0.251 nM | N[C@H]1CCCC[C@H]1Nc1nc(-c2cc3ccc(F)cc3s2)c2c(c1F)CNC2=O [Example 20] |
